The results in this text go back to US11065234B2, “Estrogen receptor modulators” (Recurium IP Holdings, LLC, priority 2016, dated 2021).

Where only a bound is given, the exact number is not on record here.

The subject of data set [1] is MCF7. As to the kind of experiment: Breast Cancer Cell Proliferation Assay (MCF-7). The format is cell-based. Particulars: Homo sapiens, 120 h; MCF7 cells, 5 days of compound exposure, Cell Titer-Glo. The procedure: Breast Cancer Cell Proliferation Assay (MCF-7)
MCF7 was expanded and maintained in the medium (Phenol red free DMEM/F12 (Hyclone SH30272.01) NEAA (Gibco11140-050) Na-pyruvate (Gibco 11360-070) and Re-stripped Charcoal stripped FBS (Gemini 100-119)). The cells were adjusted to a concentration of 3,000 cells per mL in the above media, and the cells were incubated (37° C., 5% CO2). The following day a 10 point, serial dilution of compounds was added to the cells at a final concentration ranging from 10-0.000005 μM for test compounds (17β-estradiol was used as a control). Additional cells were plated in 30 wells to serve as the day 1 (pretreatment) comparison. After 5 days of compound exposure, Cell Titer-Glo reagent was added to the cells and the relative luminescence units (RLUs) of each well was determined. Cell Titer-Glo was also added to 32 μL of medium without cells to obtain a background value. The plates were allowed to incubate at room temperature for 10 minutes to stabilize luminescent signal and the luminescence signal was recorded with EnSpire. The relative increase in cell number of each sample is determined as follows: (RLU sample-RLU background/RLU estrogen only treated cells-RLU background)×100=% inhibition.
A general note: ATP-based viability assays read luminescence as a measure of living cells.

Data set [2] is described as follows: Pharmacokinetic Determination (Rat PK). Particulars: plasma, female SD rats. The format is in vivo. The procedure: Example D Pharmacokinetic Determination
Grouping female SD rats weighing 200-300 g randomly to two groups; one group was administered with test compound at a dose of 3.0 mg/kg by intravenous injection, the other group was administered with test compound at a dose of 10.0 mg/kg by oral. The formulation for IV groups is DMSO/PEG400/150 mM glycine (pH 9) (5/10/85) and the formulation for PO groups is PEG400/PVP/Tween 80/0.5% CMC in water (9/0.5/0.5/90). After administering, blood samples of intravenous injection group were collected at time points of predose, 0.0833, 0.25, 0.5, 1, 2, 4, 8, 12 and 24 h; blood samples of oral group were collected at time points of predose, 0.25, 0.5, 1, 2, 4, 8, 12, and 24 h. Standard curve was plotted based on concentrations of the samples in a suitable range, the concentrations of test compounds in plasma samples were determined by using LC-MS/MS. Pharmacokinetic parameters were calculated according to drug concentration-time curve using a noncompartmental method by WinNonLin (Phoenix™, version 6.1) or other similar software.

The target of data set [3] is T1, ERα (Homo sapiens, UniProt P03372).
T1 construct: endogenous in cells; host or cells: MCF-7
T1 sequence (P03372 1-595): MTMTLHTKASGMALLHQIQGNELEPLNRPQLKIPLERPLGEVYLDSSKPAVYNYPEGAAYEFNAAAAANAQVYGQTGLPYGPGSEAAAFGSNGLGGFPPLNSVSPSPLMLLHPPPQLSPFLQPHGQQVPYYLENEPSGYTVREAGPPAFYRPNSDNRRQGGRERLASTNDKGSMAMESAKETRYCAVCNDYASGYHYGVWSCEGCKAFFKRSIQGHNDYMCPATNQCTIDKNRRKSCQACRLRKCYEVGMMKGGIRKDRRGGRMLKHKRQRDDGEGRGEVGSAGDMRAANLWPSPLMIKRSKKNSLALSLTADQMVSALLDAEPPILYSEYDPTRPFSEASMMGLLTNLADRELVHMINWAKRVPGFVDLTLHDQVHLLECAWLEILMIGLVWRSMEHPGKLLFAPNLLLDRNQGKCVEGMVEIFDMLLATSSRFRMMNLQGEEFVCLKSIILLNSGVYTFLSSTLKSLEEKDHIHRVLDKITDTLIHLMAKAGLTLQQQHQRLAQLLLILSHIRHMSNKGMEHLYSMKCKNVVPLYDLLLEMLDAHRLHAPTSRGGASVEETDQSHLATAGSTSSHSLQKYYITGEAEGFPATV
As to the kind of experiment: ER Degradation Determination by Western Blot. The format is cell-based. Conditions: MCF-7 cells, 10 μM, 18-24 hours. The procedure:
ER Degradation Determination by Western Blot
MCF-7 cells are plated at 0.3 million cells/mL (3 mL/well) in 6-well plates in experiment media and incubated at 37° C., 5% CO2 for […]. Next day, 10× solution of compounds are made in DMSO and added the solution to the cells to achieve a final concentration of 10 μM. A DMSO control is included to enable a determination of the relative efficacy of test compounds. Fulvestrant is used as a positive control for ER-alpha degradation, and 4-OH tamoxifen as a control for receptor stabilization. After incubating cells with compounds for 18-24 hours, cell lysates are prepared (2× Cell lysis buffer:100 mM Tris, pH 8, 300 mM NaCl, 2% NP40, 1% Na deoxycholate, 0.04% SDS, 2 mM EDTA) and mixed thoroughly and incubated on ice. The protein concentration is quantified using BCA kit. […] The gel was then transferred onto a nitrocellulose membrane. […] GAPDH protein was used as an internal control.
(A western blot detects proteins with antibodies after separation by electrophoresis.)

In general, IC50 refers to the concentration at which inhibition is half-maximal. Lower therefore signals inhibition by little substance. In the case of `C[C@H]1Cc2c([nH]c3ccc(O)cc23)[C@H](c2c(F)cc(/C=C/C(=O)O)cc2F)N1CC(C)(C)F` (single isomer, unassigned) [Example 13A], the 50% inhibitory concentration (IC50) in data set [1] is 25 to 250 nM.

The AUC(0-inf) is total exposure, with the tail of the curve extrapolated. A high value points to high exposure. One may read the clearance as the rate of elimination divided by the concentration. High values mean efficient removal, low ones inefficient removal. One may read the half-life as the time needed for the level to fall by half in the phase considered. Lower therefore signals rapid decline. The Cmax is the peak of the concentration-time curve. Usually Tmax stands for the time from dosing to the highest level. In data set [2] (IV, 3.0 mg/kg), `CC/C(=C(/c1ccc(/C=C/C(=O)O)cc1)c1ccc2[nH]ncc2c1)c1ccc(F)cc1Cl` [ARN810, reference compound] showed an AUC(0-inf) of 5.9 µM·h, a clearance of 19 mL/min/kg and a half-life of 4.7 h. In addition, the Vd in data set [2] (IV, 3.0 mg/kg, read-out: Vdss) turned out to be 1.2 L/kg. The bioavailability in data set [2] (PO 10.0 mg/kg vs IV 3.0 mg/kg) was 117%. In data set [2] (PO, 10.0 mg/kg), the AUC(0-inf) came to 23 µM·h, the Cmax was determined as 6.7 µM, the Tmax was determined as 1 h and the half-life is 6.9 h. For the same compound, the IC50 in data set [1] was not above 25 nM. As for `C[C@@H]1Cc2c([nH]c3ccccc23)[C@@H](c2c(F)cc(/C=C/C(=O)O)cc2F)N1CC1(F)COC1` [Example 16A, (E)-3-(3,5-Difluoro-4-((1R,3R)-2-((3-fluorooxetan-3-yl)methyl)-3-methyl-2,3,4,9-tetrahydro-1H-pyrido[3,4-b]indol-1-yl)phenyl)acrylic acid], in data set [1], the IC50 was not above 25 nM. Turning to `CC[C@@H]1Cc2c([nH]c3ccccc23)[C@@H](c2c(F)cc(/C=C/C(=O)O)cc2F)N1C12CC(C1)C2` (single isomer, unassigned) [Example 25A], the IC50 in data set [1] is not below 250 nM. Still for that read-out and setting: the value for `CC[C@@H]1Cc2c([nH]c3ccccc23)[C@@H](c2c(F)cc(/C=C/C(=O)O)cc2F)N1[C@@H]1CCOC1` (single isomer, unassigned) [Example 23B] was 25 to 250 nM. Regarding `C[C@@H]1Cc2c([nH]c3ccccc23)[C@@H](c2c(F)cc(/C=C/C(=O)O)cc2F)N1C1CC(F)(F)C1` (single isomer, unassigned) [Example 9A], in data set [3], the ERα % degradation result is “A (A = ERα % degradation ≥80%)”. The compound further displayed an IC50 in data set [1] of 25 to 250 nM. In data set [1], `CC1(C)Cc2c([nH]c3ccccc23)C(c2c(F)cc(/C=C/C(=O)O)cc2F)N1CC12CC(C1)C2` (centres unmarked) [Example 22, (E)-3-(4-(2-(Bicyclo[1.1.1]pentan-1-ylmethyl)-3,3-dimethyl-2,3,4,9-tetrahydro-1H-pyrido[3,4-b]indol-1-yl)-3,5-difluorophenyl)acrylic acid] yielded an IC50 of 25 to 250 nM.

Consider `C[C@@H]1Cc2c([nH]c3ccccc23)[C@@H](c2c(F)cc(/C=C/C(=O)O)cc2F)N1CC1(C)COC1` [Example 18A, (E)-3-(3,5-Difluoro-4-((1R,3R)-3-methyl-2-((3-methyloxetan-3-yl)methyl)-2,3,4,9-tetrahydro-1H-pyrido[3,4-b]indol-1-yl)phenyl)acrylic acid], for which the half-inhibitory concentration (IC50) in data set [1] is not above 25 nM. Same read-out and setting: the value for `C[C@@H]1Cc2c([nH]c3ccccc23)[C@H](c2c(F)cc(/C=C/C(=O)O)cc2F)N1C12CC(C1)C2` [Example 11C, (E)-3-(4-((1S,3R)-2-(Bicyclo[1.1.1]pentan-1-yl)-3-methyl-2,3,4,9-tetrahydro-1H-pyrido[3,4-b]indol-1-yl)-3,5-difluorophenyl)acrylic acid] was not below 250 nM. On to `C[C@@H]1Cc2c([nH]c3ccccc23)[C@@H](c2c(F)cc(/C=C/C(=O)O)cc2F)N1C12CC(C(F)(F)F)(C1)C2` (single isomer, unassigned) [Example 4A], for which the ERα % degradation entry in data set [3] is on record as “A (A = ERα % degradation ≥80%)”. Moreover, the IC50 in data set [1] was in the range of 25 to 250 nM. With `C[C@@H]1Cc2c([nH]c3ccccc23)[C@@H](c2c(F)cc(/C=C/C(=O)O)cc2F)N1[C@@H]1CCOC1` [Example 8B, (E)-3-(3,5-Difluoro-4-((1R,3R)-3-methyl-2-((R)-tetrahydrofuran-3-yl)-2,3,4,9-tetrahydro-1H-pyrido[3,4-b]indol-1-yl)phenyl)acrylic acid], the ERα % degradation entry in data set [3] is recorded as “B (B = ERα % degradation <80%)”. In data set [1], this compound gave a 50% inhibitory concentration (IC50) of 25 to 250 nM. Turning to `C[C@@H]1Cc2c([nH]c3cc(O)ccc23)[C@@H](c2c(F)cc(/C=C/C(=O)O)cc2F)N1CC(C)(C)F` [Example 15A, (E)-3-(3,5-Difluoro-4-((1R,3R)-2-(2-fluoro-2-methylpropyl)-7-hydroxy-3-methyl-2,3,4,9-tetrahydro-1H-pyrido[3,4-b]indol-1-yl)phenyl)acrylic acid], in data set [1], the IC50 was not above 25 nM.

As for `[2H][C@@]1(c2c(F)cc(/C=C/C(=O)O)cc2F)c2[nH]c3ccccc3c2C[C@@H](C)N1C12CC(C1)C2` [Example 11D, (E)-3-(4-((1R,3R)-2-(Bicyclo[1.1.1]pentan-1-yl)-3-methyl-2,3,4,9-tetrahydro-1H-pyrido[3,4-b]indol-1-yl-1-d)-3,5-difluorophenyl)acrylic acid], in data set [1], the IC50 is not above 25 nM. Still for that read-out and setting: then `CCC1Cc2c([nH]c3ccccc23)C(c2c(F)cc(/C=C/C(=O)O)cc2F)N1CC12CC(C1)C2` (centres unmarked) [Example 24, (E)-3-(4-(2-(Bicyclo[1.1.1]pentan-1-ylmethyl)-3-ethyl-2,3,4,9-tetrahydro-1H-pyrido[3,4-b]indol-1-yl)-3,5-difluorophenyl)acrylic acid], with 25 to 250 nM; and `CC[C@H]1Cc2c([nH]c3ccccc23)[C@H](c2c(F)cc(/C=C/C(=O)O)cc2F)N1C12CC(C1)C2` (single isomer, unassigned) [Example 25B], with not above 25 nM; and `CC[C@@H]1Cc2c([nH]c3ccccc23)[C@@H](c2c(F)cc(/C=C/C(=O)O)cc2F)N1[C@H]1CCOC1` (single isomer, unassigned) [Example 23A], with not above 25 nM. As for `C[C@@H]1Cc2c([nH]c3ccccc23)[C@@H](c2c(F)cc(/C=C/C(=O)O)cc2F)N1C1CCOCC1` [Example 6A, (E)-3-(3,5-Difluoro-4-((1R,3R)-3-methyl-2-(tetrahydro-2H-pyran-4-yl)-2,3,4,9-tetrahydro-1H-pyrido[3,4-b]indol-1-yl)phenyl)acrylic acid], the ERα % degradation entry in data set [3] is “B (B = ERα % degradation <80%)”. In data set [1], `C[C@@H]1Cc2c([nH]c3ccccc23)[C@@H](c2c(F)cc(/C=C/C(=O)O)cc2F)N1CC1COC1` [Example 17A] displayed an IC50 of 25 to 250 nM. Still for that read-out and setting: the value for `O=C(O)/C=C/c1cc(F)c(C2c3[nH]c4ccccc4c3C[C@@H](C(F)F)N2C2CCOC2)c(F)c1` (stereo partly drawn) [Example 19A, (E)-3-(4-((3S)-3-(Difluoromethyl)-2-(tetrahydrofuran-3-yl)-2,3,4,9-tetrahydro-1H-pyrido[3,4-b]indol-1-yl)-3,5-difluorophenyl)acrylic acid] was not above 25 nM; that for `C[C@@H]1Cc2c(n(C)c3ccccc23)[C@@H](c2c(F)cc(/C=C/C(=O)O)cc2F)N1C12CC(C1)C2` [Example 26A, (E)-3-(4-((1R,3R)-2-(bicyclo[1.1.1]pentan-1-yl)-3,9-dimethyl-2,3,4,9-tetrahydro-1H-pyrido[3,4-b]indol-1-yl)-3,5-difluorophenyl)acrylic acid] was not below 250 nM.
